Consider three molecules from patent US20190054103A1, “METHOD OF TREATMENT OF TP53 WILD-TYPE TUMORS WITH 2',2'-DIFLUORO-5-AZA-2'-DEOXYCYTIDINE OR PRODRUGS THEREOF” (priority 2016, published 2019).

A value given as a limit tells only on which side of the number the result lay.

Data set [1] relates to TP53 WT colon cancer cell line Ls174T. The data set is described as follows: CellTiter-Glo growth inhibition, Ls174T. The following applies: 72-hour exposure, FIG. 1. It is filed as cell-based. On the procedure: (§1) Two examples of additional comparisons are provided below for colon cancer cell lines (TP53 WT colon cancer cell line Ls174T and TP53 WT colon cancer cell line LoVo).
(§2) In these assays, two 96 well plates of each cell line were seeded with 5,000 cells per well in a total volume of […] per well and left incubating overnight. The following day, the cells were exposed to different concentrations of NUC013. At the end of a 72-hour exposure period, the plates were removed for CellTiter-Glo® assay. Luminescence was recorded on a Synergy 4.0.

Data set [2] relates to TP53 WT colon cancer cell line LoVo. Kind of data set: CellTiter-Glo growth inhibition, LoVo. Format: cell-based. The following applies: 72-hour exposure, FIG. 2. The method, then: as §1, §2
A further data set has as its system HeLa cells. Kind of data set: Nucleotide concentrations in HeLa cell extracts by HPLC (RNR inhibition). It is filed as cell-based. The following applies: 50 μM, 16 h incubation. From the text: The more common approach is to synthesize a nucleoside diphosphate and then determine whether it inhibits RNR or p53R2. […] Nucleic Acids Research. […] The other approach is to expose cells in tissue culture to the drug and then attempt to determine whether deoxynucleotide synthesis is inhibited when compared to control cells. Measurement of deoxynucleotides may be done by radioimmunoassay or by HPLC. The disadvantage of a radioimmunoassay is that it can only measure a single deoxynucleotide triphosphate (dNTP) at a time and typically requires a tritiated nucleotide, but it is the preferred method for measuring dCTP [Piall E M, Aherne G W, Marks V. The quantitative determination of 2′-deoxycytidine-5′ triphosphate in cell extracts by radioimmunoassay. Anal Biochem. 1986; 154(1):276-281 incorporated herein by reference in its entirety]. On the other hand, HPLC can measure multiple nucleotides without requiring radiolabeling, but has been noted to quantitate poorly dC nucleotides, possibly as an artifact of an influx of dCTP from the medium [Bianchi V, Pontis E, Reichard P. Changes of deoxyribonucleoside triphosphate pools induced by hydroxyurea and their relation to DNA synthesis. J Biol Chem. 1986; 261(34): 16037-16042 incorporated herein by reference in its entirety]. This approach was used to determine RNR inhibition by NUC013.
Briefly, HeLa cells ([…]) were grown in the presence or absence of drug, in this case gemcitabine or NUC013. At the end of a 16 h incubation, the medium was aspirated, cells monolayers washed twice with PBS, and used for nucleotide extraction. The nucleotides were extracted from cell monolayers by the addition of ice-cold 80% acetonitrile (ACN) for 1 h. The extracts were centrifuged to remove cellular debris and loaded on a SAX column (100 mg, Supelco) pre-conditioned with methanol, water and ACN. Once the sample was completely effused, the cartridge was washed with 3 ml 80% ACN and 3 ml water and eluted with 1M KCl. The eluent was filtered through a 0.45 μm filter membrane (Roth) and analyzed by HPLC. Peak identification of the different nucleoside mono-, di-, and triphosphates, was made from their characteristic UV absorption spectra and retention times compared with those of a mixture of standards run immediately before cell extracts. The area of individual peaks was measured using ChemStation software (Agilent).

Data set [3] relates to HL-60 (leukemia, TP null). The following applies: HL-60 nude mice.
The conditions of data set [4]: in vivo.
The subject of data set [5] is LoVo (colon cancer, TP WT). The data set is described as follows: Xenograft model, nude mice implanted with LoVo. The following applies: NUC041 treatment, 8 days following the end of treatment.
Data set [6] can be described thus: Pharmacokinetics after SC administration of NUC041 in phospholipid gel depot to mice. The settings on record: analyte in plasma following SC administration of NUC041 (100 mg/kg) to mice.

As for “4-amino-1-((2R,4R,5R)-3,3-difluoro-4- hydroxy-5- (hydroxymethyl)tetrahydrofuran-2- yl)pyrimidin-2(1I)-one hydrochloride [Gemcitabine, reference compound]”, the GI50 in data set [1] is greater than 50 µM. The GI50 in data set [2] is greater than 50 µM. In addition, in the data set on HeLa cells, the ADP is on record as 15,639, the ATP was 26,296, the CTP is 1,297 and the GTP was 2,036. Also, in the data set on HeLa cells, the UTP is 4,801; the “dATP, peak area, AU” value is listed as 0 AU; the “dGDP, peak area, AU” value amounted to 7.95 AU; the “dTDP, peak area, AU” value turned out to be 43.4 AU. The “dUTP, peak area, AU” value in the data set on HeLa cells is recorded as 5.3 AU.
In the case of `Nc1ncn([C@H]2C[C@H](O)[C@@H](CO)O2)c(=O)n1` [Decitabine, 4-amino-1-((2R,4S,5R)-4-hydroxy-5-(hydroxymethyl)tetrahydrofuran-2-yl)-1,3,5-triazin-2(1I)-one], the “mice dead or moribund prior to the conclusion of the study” value in data set [3] (5 mg/kg per day for three consecutive days a week for three weeks) was “Four of ten”.
For the molecule `C[Si](C)(C)OC[C@H]1O[C@@H](n2cnc(N)nc2=O)C(F)(F)[C@@H]1O[Si](C)(C)C` [NUC041, 4-amino-1-((2R,4R,5R)-3,3-difluoro-4-(trimethylsilyloxy)-5-((trimethylsilyloxy)methyl)tetrahydrofuran-2-yl)-1,3,5-triazin-2(1H)-one], the “hazard ratio (HR) vs saline control” value in data set [3] (31 mg/kg intravenously, oil in water emulsion) was determined as 0.51. Further, in data set [4], the “pharmacokinetic advantage over NUC013” value was “did not demonstrate a pharmacokinetic advantage over NUC013”. Moreover, the “tumor weights less than saline controls” value in data set [5] is listed as 26.6%. For the same molecule, the “AUClast (area under the plasma concentration versus time curve from 0 to last quantifiable sampling time)” value in data set [6] was 20.0 ng·h/mL.
